The results in this text go back to ChEMBL document CHEMBL5120884, “Complex Flavanones from Cryptocarya metcalfiana and Structural Revision of Oboflavanone A” (J Nat Prod, 2022).

SMILES strings stand for the structures. A value given as a limit tells only on which side of the number the result lay.

The subject of the experiment is HCT-116. Nature of the experiment: Cytotoxicity against human HCT-116 cells incubated for 48 hrs by MTT assay. In kind it is functional, cell-based. Particulars: HCT-116, 48 h. (In general: Tetrazolium assays rely on reduction of a dye to a coloured formazan, in cell work by metabolically active cells.)
A word on the IC50: it is the midpoint of a concentration-inhibition curve. Read a low IC50 as inhibition by little substance. Molecule `COC(=O)CCC[C@@H]1C[C@@H]2C[C@@](CCc3ccccc3)(Oc3cc4c(c(O)c32)C(=O)C[C@@H](c2ccccc2)O4)O1` returned an IC50 of more than 10 µM.
For the molecule `O=C1C=CC[C@H](C[C@@H]2C[C@@H]3C[C@@](CCc4ccccc4)(Oc4cc5c(c(O)c43)C(=O)C[C@H](c3ccccc3)O5)O2)O1`, the IC50 amounted to 5.8 µM.
To `O=C1CCC[C@@H]2C[C@H](C[C@](O)(/C=C/c3ccccc3)O2)c2c(cc(O)c3c2O[C@@H](c2ccc(O)cc2)CC3=O)O1` belongs 4.5 µM; to `O=C1C=CC[C@H](C[C@@H]2C[C@@H]3C[C@@](CCc4ccccc4)(Oc4cc5c(c(O)c43)C(=O)C[C@@H](c3ccccc3)O5)O2)O1`, 6.1 µM.
For the molecule `O=C1CCC[C@@H]2C[C@H](C[C@](O)(/C=C/c3ccccc3)O2)c2c(cc(O)c3c2O[C@H](c2ccc(O)cc2)CC3=O)O1`, the IC50 worked out at 4.2 µM.
`O=C(O)CCC[C@@H]1C[C@@H]2C[C@@](/C=C/c3ccccc3)(Oc3cc4c(c(O)c32)C(=O)C[C@H](c2ccccc2)O4)O1` displayed an IC50 of more than 10 µM.
In the case of `O=C1C=CC[C@H](C[C@@H]2C[C@@H]3C[C@@](/C=C/c4ccccc4)(Oc4cc5c(c(O)c43)C(=O)C[C@@H](c3ccccc3)O5)O2)O1`, the IC50 amounted to 7.2 µM. This lies in the single-digit micromolar range.
The molecule `O=C(O)CCC[C@@H]1C[C@@H]2C[C@@](/C=C/c3ccccc3)(Oc3cc4c(c(O)c32)C(=O)C[C@@H](c2ccccc2)O4)O1` had a half-maximal inhibitory concentration (IC50) of more than 10 µM.
For `COC(=O)CCC[C@@H]1C[C@@H]2C[C@@](CCc3ccccc3)(Oc3cc4c(c(O)c32)C(=O)C[C@H](c2ccccc2)O4)O1`, the half-inhibitory concentration (IC50) is more than 10 µM.
